Assay results reported in US11672788B2, “Histone deacetylase inhibitors for immunomodulation in tumor microenvironment” (GREAT NOVEL THERAPEUTICS BIOTECH & MEDICALS CORPORATION, priority 2020, dated 2023).

Key:
M10 cells [1] = assay: Cell apoptosis (sub-G1) by PI flow cytometry; format: cell-based, human; conditions: M10, 12.5 μM, 72 h
Method: (§1) A PI/RNase staining assay (BD Bioscience™) was performed to reveal the presence of cell cycle arrest and apoptotic cells after treatment with GNTbm compounds, Chidamide and Entinostat. […] After treatment cells were harvested, fixed with 80% ethanol for 24 h, washed with 1×PBS and stained with PI/RNase for 15 min at room temperature. The cells were then analyzed using Flow Cytometer within 1 h.

SW48 cells [2] = assay: Cell apoptosis (sub-G1) by PI flow cytometry; format: cell-based, human; conditions: SW48, 6.25 μM, 72 h
Method: as §1

MDA-MB-231 cells [3] = assay: Cell apoptosis (sub-G1) by PI flow cytometry; format: cell-based, human; conditions: MDA-MB-231, 6.25 μM, 72 h
Method: as §1

M10 cells [4] = assay: Cell cycle arrest by PI flow cytometry; format: cell-based, human; conditions: M10, 12.5 μM, 72 h
Method: as §1

SW48 cells [5] = assay: Cell cycle arrest by PI flow cytometry; format: cell-based, human; conditions: SW48, 3.125 μM, 72 h
Method: as §1

MDA-MB-231 cells [6] = assay: Cell cycle arrest by PI flow cytometry; format: cell-based, human; conditions: MDA-MB-231, 3.125 μM, 72 h
Method: as §1

SK-BR-3 = assay: In vitro cytotoxicity MTT assay; format: cell-based; conditions: Homo sapiens, 72 h, IC50 ± SD
Method: (§2) Six different cell lines were used, including human breast cancer cell line MDA-MB-231 (6×10^3), MDA-MB-453 (2.4×10^4), SK-BR-3 (6×10^3), human breast epithelial cell line M10 (6×10^3), human gastric carcinoma NCI-N87 (2.4×10^4), and human colorectal adenocarcinoma SW48 (2.4×10^4), and seeded in a 96 well plate. Cell lines were obtained from Bioresource Collection and Research Center, BCRC, Taiwan. […] After 72 h, MTT assay (Cayman™) was used to determine the cellular viability.

[7] = test system: histone H3 acetylation (AcH3) in MDA-MB-231 cells; assay: Western blot of histone H3 acetylation; format: cell-based, human; conditions: MDA-MB-231, 1.0 μM, 24 h
Method: Human breast cancer MDA-MB-231 cells and human colorectal adenocarcinoma SW48 cells were analyzed. MDA-MB-231 and SW48 were obtained from Bioresource Collection and Research Center (BCRC, Taiwan). MDA-MB-231 and SW48 were grown at 37° C. under humidified air supplemented without CO2 in Leibovitz's L-15 (cat. #11415114, Thermo Fisher Scientific) containing 10% heat inactivated fetal calf serum (Thermo Scientific), 1× concentration of MycoZap antibiotics (cat. #VZA-2011, Lonza). Cells were treated with GNTbm compounds series, Chidamide or Entinostat for different time periods or at varied doses. Cells were treated with indicated doses for 24 h or cells were treated with indicated doses for different time periods. Cell pellets were dissolved with RIPA buffer (cat. #20-188, Merck) with protease and phosphatase inhibitors (cat. #K272, BioVision) and clarified by centrifugation. Equal amounts of total protein were resolved by SDS-PAGE and transferred to polyvinylidene fluoride membranes (cat. #1620177, BIO-RAD). Blots were incubated with primary antibodies against β-actin (cat. #sc-47778, Santa Cruz Biotechnology), Histone 3ac (cat. #61637, Active Motif), and HRP secondary antibodies anti-rabbit (ab6721, Abcam) and anti-mouse (sc-2005, Santa Cruz). Blots were developed using the ECL Western Blotting Substrate (cat. #sc-2048, Santa Cruz Biotechnology) Image blots were analyzed with the iBright FL1000 (Thermo Fisher Scientific) imaging systems.

MDA-MB-231 = assay: In vitro cytotoxicity MTT assay; format: cell-based, human; conditions: Homo sapiens, MDA-MB-231, 72 h, IC50 ± SD
Method: as §2

SW48 = assay: In vitro cytotoxicity MTT assay; format: cell-based, human; conditions: Homo sapiens, SW48, 72 h, IC50 ± SD
Method: as §2

MDA-MB-453 = assay: In vitro cytotoxicity MTT assay; format: cell-based, human; conditions: Homo sapiens, MDA-MB-453, 72 h, IC50 ± SD
Method: as §2

M10 = assay: In vitro cytotoxicity MTT assay; format: cell-based, human; conditions: Homo sapiens, M10, 72 h, IC50 ± SD
Method: as §2

HDAC11 = HDAC11 (Homo sapiens (Human), UniProt Q96DB2); assay: HDACs 1-11 enzymatic inhibition by BPS Bioscience
Method: HDAC assay was performed according to standard Protocols (Fluorgenic HDACs 1-11 assay kit, BPS Bioscience™). […] After 0.5 h, assay developer was added to the samples and the absorbance was read at fluorogenic wavelength. The relative inhibition to HDACs 1, 2, 3, 4, 5, 6, 7, 8, 9, and 11 activities was determined in each sample. […] All of the compounds were dissolved in DMSO. The serial dilution of the compounds was first performed in 100% DMSO with the highest concentration at 1 mM. Each intermediate compound dilution (in 100% DMSO) would then get directly diluted 10× fold into assay buffer for an intermediate dilution of 10% DMSO in HDAC assay buffer and 5 μl of the dilution was added to a 50 μl reaction so that the final concentration of DMSO is 1% in all of the reactions. The enzymatic reactions for the HDAC enzymes were conducted in duplicate at 37° C. for 30 minutes in a 50 μl mixture containing HDAC assay buffer, 5 μg BSA, an HDAC substrate, a HDAC enzyme and a test compound. After enzymatic reactions, 50 μl of 2×HDAC Developer was added to each well for the HDAC enzymes and the plate was incubated at room temperature for an additional 15 minutes. Fluorescence intensity was measured at an excitation of 360 nm and an emission of 460 nm using a Tecan Infinite M1000 microplate reader. HDAC activity assays were performed in duplicate at each concentration. The fluorescent intensity data were analyzed using the computer software, Graphpad Prism. In the absence of the compound, the fluorescent intensity (Ft) in each data set was defined as 100% activity. In the absence of HDAC, the fluorescent intensity (Fb) in each data set was defined as 0% activity. The percent activity in the presence of each compound was calculated according to the following equation: % activity=(F−Fb)/(Ft−Fb), where F=the fluorescent intensity in the presence of the compound. The values of % activity versus a series of compound concentrations were then plotted using non-linear regression analysis of Sigmoidal dose-response curve generated with the equation Y=B+(T−B)/1+10((Log EC50−X)×Hill Slope), where Y=percent activity, B=minimum percent activity, T=maximum percent activity, X=logarithm of compound and Hill Slope=slope factor or Hill coefficient. The IC50 value was determined by the concentration causing a half-maximal percent activity.

CT26 tumor [8] = assay: Anti-cancer activity in CT26 tumor-bearing BALB/c mice; format: in vivo; conditions: for ORR (%): k-30 compounds 50 mg/kg, Regorafenib 30 mg/kg po daily; for ORR (%) / CR / PD / PR: first tumor assessment; for CR / PD / PR / CR^& / PD^& / PR^& / SD^&: number of mice; for ORR (%)^& / CR^& / PD^& / PR^& / SD^&: second tumor assessment on day 40
Method: Six- to eight-week-old male BALB/c mice (National Laboratory Animal Center, Taiwan) were used in each treatment group for all animal experiments. […] CT26 cell line was purchased from ATCC. CT26 tumor cells were grown in McCoy's 5A supplemented with 10% (vol/vol) FBS at 37° C., 5% CO2. […] Tumors were allowed to grow for 8-11 days (tumor size about 150-250 mm^3) before randomization and treatment. Animals were euthanized when tumors reached more than 3000 mm^3 […]. CT26-bearing mice were given 2.5 mg/kg of anti-IgG (cat. #BE0089, Lot #716719J3, Bio X Cell) and anti-PD-1 (cat. #BE0146, Lot #735019J3, Bio X Cell) antibody by i.p. administration on days 8, 11, 14, 17, 20 and 23 post tumor implantation, and all antibodies were diluted to appropriate concentrations in 100 μL of sterile PBS (pH 7.4) (Invitrogen Life Technologies). […] The anti-cancer activity was measured from the start of the treatment until the tumor volume reached 3,000 mm^3. Tumor volume was calculated as length×width^2×0.5.
The BALB/c mice bearing murine CT26 colon tumors were treated with various therapeutic modalities as indicated. […] CT26 tumor-bearing mice were euthanized when tumor volume reached 3000 mm^3 after tumor implantation. […] After 16 days of treatment, we continued to monitor the tumor size up to day 60. When tumor growth reappeared and tumor size reached at least 5 fold in mice with CR or PR response after first tumor assessment, it was defined as relapse/recurrence. […] Furthermore, we also investigate epigenetic immunomodulatory properties in series of GNTbm compounds including GNTbm-05/k-30, GNTbm-11/k-30, GNTbm-38/k-30 and GNTbm-39/k-30.

CT26 cells = assay: Tumor rechallenge study (immune memory) in tumor-bearing mice; format: in vivo; conditions: Exp 1; mice resistant to CT26 re-challenge
Method: All mice with PR/CR response after treatment went rechallenged with CT26 cells on the contralateral side (please see Table 6). The rechallenge with CT26 was performed on day 33, which was 7 days (day 33) after first tumor assessment (day 26), with injection of 5×10^6 CT26 cells to the right flank of each mouse. After rechallenge with CT26 cells, the tumor was allowed to grow for another 7 days (day 40) to determine the baseline as 1 fold. After a further 10 days (day 50), the tumor growth was evaluated for the rechallenge. If both of the following criteria are met, the response will be considered as relapse: first, the tumor size over 2 folds when compared to that of baseline; second, the tumor volume at day 50 was over 300 mm^3. Relapse happens when immune memory activity is not sufficiently activated. If the tumor growth is inhibited, it means the immune memory is activated.
The mice were treated with different regimens for 16 days, and then the first tumor assessment was performed (day 26). […] Then rechallenge was performed with the same kind of cancer cells (CT26; 5×10^6) inoculated on the opposite flank for about another 7 days (day 40), and then the tumor volume would be determined as baseline (1 fold). The rechallenge tumor was allowed to grow for 10 days (day 50), and then the tumor size was measured to evaluate the immune memory as positive or negative. […]

CT26 tumor [9] = assay: Survival rate in CT26 tumor-bearing mice; format: in vivo; conditions: Exp 1
Method: The administration of antibody or drugs was performed for 16 days from day 8 to day 23. The tumor continued to grow in the tumor-bearing mice. The tumor volume of the mice was measured once every three or four days (twice/week). The tumor-bearing mice were regarded as dead when the tumor volume reached 3,000 mm^3. All treatment groups were recorded and analyzed.

Chain of HDAC11 (Q96DB2 whole entry): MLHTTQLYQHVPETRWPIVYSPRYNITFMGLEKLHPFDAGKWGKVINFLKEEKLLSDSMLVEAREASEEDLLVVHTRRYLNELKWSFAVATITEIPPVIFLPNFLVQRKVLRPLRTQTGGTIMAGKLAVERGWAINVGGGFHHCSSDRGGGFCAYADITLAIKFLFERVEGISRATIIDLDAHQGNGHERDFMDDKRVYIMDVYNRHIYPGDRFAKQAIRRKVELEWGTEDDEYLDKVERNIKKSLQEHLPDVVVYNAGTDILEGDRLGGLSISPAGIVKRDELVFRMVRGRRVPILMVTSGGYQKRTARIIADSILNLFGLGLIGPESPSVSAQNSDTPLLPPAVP

Nc1ccccc1NC(=O)c1ccc(CNC(=O)OCc2cccnc2)cc1 [Entinostat, reference compound]
Induction of apoptosis (sub-G1 phase) (M10 cells [1]): significantly induced apoptosis in M10 cells | Induction of apoptosis (sub-G1 phase) (SW48 cells [2]): significantly induced apoptosis | Induction of apoptosis (sub-G1 phase) (MDA-MB-231 cells [3]): significantly induced apoptosis | Cell cycle arrest (M10 cells [4]): significantly induced cell cycle arrest of M10 cells in the G2/M phase | Cells in G2/M phase (M10 cells [4]): 20.2% | Cell cycle arrest (SW48 cells [5]): significantly induced cell cycle arrest in G0/G1 phase | Cells in G0/G1 phase (SW48 cells [5]): 72.1% | Cell cycle arrest (MDA-MB-231 cells [6]): significantly induced cell cycle arrest in G0/G1 phase | IC50 (SK-BR-3): 1.94 ± 0.1 µM | Level of histone H3 acetylation [7]: significantly increased the level of histone H3 acetylation | IC50 (MDA-MB-231): 13.2 ± 1.34 µM | IC50 (SW48): 5.21 ± 0.37 µM | IC50 (MDA-MB-453): 1.82 ± 0.024 µM | IC50 (M10): 4.34 ± 0.01 µM | IC50 (HDAC11): > 10 µM

CNC(=O)c1cc(Oc2ccc(NC(=O)Nc3ccc(Cl)c(C(F)(F)F)c3)c(F)c2)ccn1 [Regorafenib]
ORR (%) (CT26 tumor [8]; Exp 1, initial tumor volume 245 mm3, strict criteria (PR ≤1 times)): 11% | CR (CT26 tumor [8]; Exp 1): 1 | PD (CT26 tumor [8]; Exp 1): 1 | PR (CT26 tumor [8]; Exp 1): 0 | ORR (%)^& (CT26 tumor [8]; Exp 1): 22% | CR^& (CT26 tumor [8]; Exp 1): 2 | PD^& (CT26 tumor [8]; Exp 1): 5 | PR^& (CT26 tumor [8]; Exp 1): 0 | SD^& (CT26 tumor [8]; Exp 1): 2 | Relapse (recurrence) (CT26 tumor [8]; Exp 1, tumor growth at least 5 fold in mice with CR or PR after first assessment, monitored up to day 60): 0% (0/1) | ORR (%) (CT26 tumor [8]; Exp 2, initial tumor volume 192 mm3): 0% | CR (CT26 tumor [8]; Exp 2): 0 | PD (CT26 tumor [8]; Exp 2): 8 | PR (CT26 tumor [8]; Exp 2): 0 | ORR (%)^& (CT26 tumor [8]; Exp 2): 0% | CR^& (CT26 tumor [8]; Exp 2): 0 | PD^& (CT26 tumor [8]; Exp 2): 9 | PR^& (CT26 tumor [8]; Exp 2): 0 | SD^& (CT26 tumor [8]; Exp 2): 0 | Immunity (rechallenge) (CT26 cells): 100% (1/1) | Survival rate (%) (CT26 tumor [9]): 11%
